From patent US20250340701A1, “DENDRIMER-DELIVERED ALPHA-PARTICLE RADIOTHERAPY FOR TREATMENT OF GLIOBLASTOMA AND OTHER CANCERS IN THE BRAIN” (priority 2022, published 2025)

Tested on: GL261 glioblastoma cells
Experiment: Colony survival measurement, GL261 glioblastoma cells
Format: cell-based, murine
Description: GL261 glioblastoma cells were incubated with different radioactivity concentrations of ^225Ac-DOTA dendrimer; cells were plated for colony survival measurement.
Cells, plated at 500,000 cells per well, were plated in 6-well plates and were allowed to adhere overnight before being incubated with varying concentrations of radioactivity (4.63, 9.25, 18.5, 37, 74 kBq/mL) at pH 7.4 for a duration of 6 hours. In case of the combination runs with temozolomide (TMZ), the free drug incubation at respective concentrations, was performed simultaneously with the radioactivity for a duration of 6 hours. […] Once cell colonies were observed (approximately 6 weeks for the cancer cells and approximately 3 weeks for the macrophages), the media was removed, dishes were washed with water, and the colonies were fixed and stained using 6% (w/v) glutaraldehyde and 0.05% (w/v) Crystal violet, respectively, following which they were counted using a colony counter pen. The number of colonies counted for each of the treatment groups was then normalized by the number of colonies from the control group to obtain the survival fraction, while accounting for the plating efficiency. The same procedure was used to obtain the survival fractions for free chemotherapeutic treatment, replacing the radioactivity concentrations with free chemotherapeutic concentration while incubating the cells. […]

## O=C([O-])CN1CCN(CC(=O)[O-])CCN(CC(=O)[O-])CCN(CC(=O)[O-])CC1.[225Ac+3] [^225Ac-DOTA]
FIG. 8 left
  colony survival fraction of GL261 cells versus resting and activated BV2 macrophages: significantly lower
TMZ incubated simultaneously for 6 hours, at 2.1-3.7 times less than its IC50, FIG. 10 left, FIG. 12
  GL261 colony survival fraction in the presence of TMZ versus without TMZ: lower
